In one assay the test system is U87MG cells. Briefly: Cellular assay: inhibition of 2-HG production in U87MG cells (LC-MS, 48 hours). In kind it is cell-based. The note with it: Homo sapiens, U-87 MG, 2-HG in media by LC-MS. The procedure: (§1) Cells (HT1080 or U87MG) were grown in T125 flasks in DMEM containing 10% FBS, 1× penicillin/streptomycin and 500 ug/mL G418 (present in U87MG cells only). They were harvested by trypsin and seeded into 96 well white bottom plates at a density of 5000 cell/well in 100 ul/well in DMEM with 10% FBS. No cells were placed in columns 1 and 12. Cells were incubated overnight at 37° C. in 5% CO2. The next day test compounds were made up at 2× the final concentration and 100 ul were added to each cell well. The final concentration of DMSO was 0.2% and the DMSO control wells were plated in row G. The plates were then placed in the incubator for 48 hours. At 48 hours, 100 ul of media was removed from each well and analyzed by LC-MS for 2-HG concentrations. The cell plate was placed back in the incubator for another 24 hours. At 72 hours post compound addition, 10 mL/plate of Promega Cell Titer Glo reagent was thawed and mixed. The cell plate was removed from the incubator and allowed to equilibrate to room temperature. Then 100 ul of Promega Cell Titer Glo reagent was added to each well of media. The cell plate was then placed on an orbital shaker for 10 minutes and then allowed to sit at room temperature for 20 minutes. The plate was then read for luminescence with an integration time of 500 ms.

In another assay the target is IDH1 R132H (Homo sapiens, UniProt O75874, R132H). Briefly: In vitro assay for IDH1 R132H inhibitors (NADPH/aKG, resazurin detection). In kind it is biochemical. The note with it: Table 4B; 0.2 μg/ml IDH1 R132H, 50 minutes at room temperature; read-out: IC50, IDH1 R132H Inhibition. The gist of the method:
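Reaction ran 50 min at room temperature in Tris pH 7.5 buffer with 150 mM NaCl, 10 mM MgCl2 and 0.03% BSA. Mix concentrations were 0.2 μg/ml mutant enzyme, 8 uM NADPH and 2 mM aKG. Detection added 30 μM resazurin, with resorufin fluorescence (Ex544/Em590) measured 5 min later.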
Background: Alamar Blue is a resazurin reagent that responds to reducing activity.

In a further assay the test system is HT1080 cells. Briefly: Cellular assay: inhibition of 2-HG production in HT1080 cells (LC-MS, 48 hours). In kind it is cell-based. The note with it: Homo sapiens, HT-1080, 2-HG in media by LC-MS. The procedure: as §1

Where only a bound is given, the exact number is not on record here.

The IC50 is the concentration needed to halve the response being measured.

Sequence of IDH1 R132H (O75874 whole entry R132H): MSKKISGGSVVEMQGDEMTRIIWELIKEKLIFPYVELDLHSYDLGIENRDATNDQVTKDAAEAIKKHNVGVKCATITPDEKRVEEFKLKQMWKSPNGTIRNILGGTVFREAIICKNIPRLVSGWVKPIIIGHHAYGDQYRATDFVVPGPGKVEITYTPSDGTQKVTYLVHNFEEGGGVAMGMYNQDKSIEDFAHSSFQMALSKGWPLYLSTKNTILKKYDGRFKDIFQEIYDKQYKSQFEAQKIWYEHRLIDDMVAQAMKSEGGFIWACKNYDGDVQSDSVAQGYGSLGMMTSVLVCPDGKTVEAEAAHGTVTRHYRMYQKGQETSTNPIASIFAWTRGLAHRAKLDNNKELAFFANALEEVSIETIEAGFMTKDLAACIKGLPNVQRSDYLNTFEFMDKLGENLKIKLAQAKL

Turning to `Cc1ccccc1C(C(=O)NC1CCCCC1)N(C(=O)CN(C)c1ccccc1)c1cccc(F)c1` (centres unmarked) [Compound 161], the IC50 in the assay on U87MG cells was 250 to 1000 nM; at IDH1 R132H, at most 100 nM.

For the compound `Cc1ccccc1C(C(=O)NC1CCCCC1)N(C(=O)CSC(=N)N)c1cccc(F)c1` (centres unmarked) [Compound 163], the IC50 in the assay with U87MG cells is over 5000 nM; on IDH1 R132H it was 100 to 1000 nM.

Regarding `Cc1ccccc1C(C(=O)NC1CCCCC1)N(C(=O)CNC1COC1)c1cccc(F)c1` (centres unmarked) [Compound 170], the values for the IC50 in the assay with U87MG cells and at IDH1 R132H were 1000 to 5000 nM and 100 to 1000 nM, respectively.

Turning to `Cc1ccccc1C(C(=O)NC1CCCCC1)N(C(=O)CNCc1cccnc1)c1cccc(F)c1` (centres unmarked) [Compound 174], the IC50 in the assay with U87MG cells was in the range of 1000 to 5000 nM; on IDH1 R132H, 100 to 1000 nM.

For the compound `Cc1ccccc1C(C(=O)NC1CCC1)N(C(=O)Cc1cccs1)c1cccc(F)c1` (centres unmarked) [Compound 178], the IC50 lay within 250 to 1000 nM in the assay on U87MG cells and 100 to 1000 nM at IDH1 R132H.

Regarding `Cc1ccccc1C(C(=O)NC1CCOCC1)N(C(=O)CN1CCCc2ccccc21)c1cccc(F)c1` (centres unmarked) [Compound 179], the results for the IC50 with U87MG cells and on IDH1 R132H were 1000 to 5000 nM and 100 to 1000 nM, respectively.

For the compound `Cc1ccccc1C(C(=O)NC1CCCCC1)N(C(=O)CNC1CCCCC1O)c1cccc(F)c1` (centres unmarked) [Compound 180], the concentration for half-maximal inhibition (IC50) with U87MG cells was in the range of 1000 to 5000 nM; on IDH1 R132H, 100 to 1000 nM.

Regarding `Cc1ccccc1C(C(=O)NC1CCCCC1)N(C(=O)CNC1CCOCC1)c1cccc(F)c1` (centres unmarked) [Compound 181], the figures for the IC50 in the assay on U87MG cells and on IDH1 R132H were 1000 to 5000 nM and 100 to 1000 nM, respectively.

Consider `Cc1ccccc1C(C(=O)NC1CCCCC1)N(Cc1cccs1)C(=O)CN(C)c1ccccc1` (centres unmarked) [Compound 182], for which the IC50 was in the range of 1000 to 5000 nM with U87MG cells and 100 to 1000 nM on IDH1 R132H.

On to `Cc1ccccc1C(C(=O)NC1CCOCC1)N(C(=O)CN(C)c1ccccc1)c1cccc(F)c1` (centres unmarked) [Compound 183], for which the IC50 in the assay with U87MG cells was in the range of 1000 to 5000 nM; at IDH1 R132H it was 100 to 1000 nM.

In the case of `Cc1ccccc1C(C(=O)NC1CC2CCC1C2)N(C(=O)Cc1cccs1)c1cccc(F)c1` (centres unmarked) [Compound 186], the IC50 was 250 to 1000 nM with U87MG cells and at most 100 nM at IDH1 R132H.

On to `Cc1ccccc1C(C(=O)NC1CCCCC1)N(Cc1cccs1)C(=O)CN1Cc2ccccc2C1` (centres unmarked) [Compound 187], for which the values for the IC50 in the assay on U87MG cells and on IDH1 R132H were 1000 to 5000 nM and 100 to 1000 nM, respectively.

For `Cc1ccccc1C(C(=O)NC1CCCCC1)N(C(=O)CN1Cc2ccccc2C1)c1cccc(F)c1` (centres unmarked) [Compound 188], the half-inhibitory concentration (IC50) in the assay with U87MG cells was in the range of 250 to 1000 nM; on IDH1 R132H, 100 to 1000 nM.

Turning to `Cc1ccccc1C(C(=O)NC1CCCCC1)N(C(=O)COc1cccc(F)c1)c1cccc(F)c1` (centres unmarked) [Compound 189], the half-inhibitory concentration (IC50) in the assay with U87MG cells was over 5000 nM; at IDH1 R132H it was 100 to 1000 nM.

As for `Cc1ccccc1C(C(=O)NC1CCCCC1)N(C(=O)COc1ccc(F)cc1)c1cccc(F)c1` (centres unmarked) [Compound 194], the IC50 was in the range of 250 to 1000 nM in the assay with HT1080 cells and 100 to 1000 nM on IDH1 R132H.

Take `Cc1ccccc1C(C(=O)NC1CCCCC1)N(C(=O)COc1ccccc1F)c1cccc(F)c1` (centres unmarked) [Compound 196]: the IC50 in the assay with HT1080 cells was in the range of 250 to 1000 nM; at IDH1 R132H, 100 to 1000 nM.

Take `Cc1ccccc1C(C(=O)NC1CCCCC1)N(Cc1cccs1)C(=O)CNc1ccc(F)cc1` (centres unmarked) [Compound 207]: the 50% inhibitory concentration (IC50) lay within 1000 to 5000 nM in the assay with HT1080 cells and 100 to 1000 nM at IDH1 R132H.

`Cc1ccccc1C(C(=O)NC1CCCCC1)N(C(=O)COCc1ccc(F)cc1)c1cccc(F)c1` (centres unmarked) [Compound 214]: the values for the IC50 in the assay on HT1080 cells and at IDH1 R132H were over 5000 nM and 100 to 1000 nM, respectively.

Turning to `CCC(=O)N1CCCC[C@H]1C(=O)N(c1cccc(F)c1)[C@H](C(=O)NC1CCCCC1)c1ccccc1C` [Compound 350], the IC50 lay in the range of 1000 to 5000 nM with U87MG cells and 100 to 1000 nM on IDH1 R132H.

Consider `O=C(NC1CCCCC1)[C@@H](c1ccccc1)N(C(=O)Cc1cccs1)c1cccc(F)c1` [Compound 386], for which the IC50 is at most 250 nM with U87MG cells and at most 100 nM on IDH1 R132H.

For `Cc1ccccc1C(C(=O)NC1CCCCC1)N(Cc1cccs1)C(=O)NCc1ccccc1` (centres unmarked) [Compound 388], the IC50 in the assay with U87MG cells was over 5000 nM; at IDH1 R132H, 100 to 1000 nM.

On to `Cc1ccccc1C(C(=O)NC1CCCCC1)N(Cc1cccs1)C(=O)OCc1ccccc1` (centres unmarked) [Compound 390], for which the IC50 with U87MG cells is over 5000 nM; on IDH1 R132H, 1000 to 10000 nM.

These data come from US20130184222A1, “[…] ACTIVE COMPOSITIONS AND THEIR METHODS OF USE” (AGIOS PHARMACEUTICALS, INC, priority 2010, published 2013).
